According to the supplement of paper PMC13380429:

What was measured:
Details in all cases: 72 h
U2OS [1] = test: drug sensitivity score (DSS) for viability; higher = more toxic; extreme values may be limits of the assay
HepG2 [2] = test: as above
Caco-2 [3] = test: as above
Vero E6 [4] = test: as above
Calu-3 [5] = test: as above
U2OS [6] = test: cell viability relative to DMSO; higher = less toxic
HepG2 [7] = test: as above
Caco-2 [8] = test: as above
Vero E6 [9] = test: as above
Calu-3 [10] = test: as above
U2OS [11] = test: relative viability EC50 (midpoint between 100% and the lowest measured viability); higher = less toxic
HepG2 [12] = test: as above
Caco-2 [13] = test: as above
Vero E6 [14] = test: as above
Calu-3 [15] = test: as above

Row | SMILES | drug sensitivity score (U2OS [1]) | drug sensitivity score (HepG2 [2]) | drug sensitivity score (Caco-2 [3]) | drug sensitivity score (Vero E6 [4]) | drug sensitivity score (Calu-3 [5]) | cell viability (U2OS [6]; 1 nM) | cell viability (U2OS [6]; 10 nM) | cell viability (U2OS [6]; 100 nM) | cell viability (U2OS [6]; 1000 nM) | cell viability (U2OS [6]; 10000 nM) | cell viability (HepG2 [7]; 1 nM) | cell viability (HepG2 [7]; 10 nM) | cell viability (HepG2 [7]; 100 nM) | cell viability (HepG2 [7]; 1000 nM) | cell viability (HepG2 [7]; 10000 nM) | cell viability (Caco-2 [8]; 1 nM) | cell viability (Caco-2 [8]; 10 nM) | cell viability (Caco-2 [8]; 100 nM) | cell viability (Caco-2 [8]; 1000 nM) | cell viability (Caco-2 [8]; 10000 nM) | cell viability (Vero E6 [9]; 1 nM) | cell viability (Vero E6 [9]; 10 nM) | cell viability (Vero E6 [9]; 100 nM) | cell viability (Vero E6 [9]; 1000 nM) | cell viability (Vero E6 [9]; 10000 nM) | cell viability (Calu-3 [10]; 1 nM) | cell viability (Calu-3 [10]; 10 nM) | cell viability (Calu-3 [10]; 100 nM) | cell viability (Calu-3 [10]; 1000 nM) | cell viability (Calu-3 [10]; 10000 nM) | relative viability EC50 (U2OS [11]) | relative viability EC50 (HepG2 [12]) | relative viability EC50 (Caco-2 [13]) | relative viability EC50 (Vero E6 [14]) | relative viability EC50 (Calu-3 [15])
1 | c1cc2c3c(c1)c1c(n3CCNC2)CCCC1 [WAY-629] | 0 | 0 | 0 | 0 | 0.1 | 101% | 100% | 95.3% | 93% | 95.9% | 88.5% | 95.4% | 81.1% | 93% | 90.9% | 113% | 90.6% | 100% | 90% | 97.1% | 100% | 99.7% | 102% | 98.8% | 92.4% | 110% | 83.8% | 104% | 106% | 85.7% | > 10 µM | > 10 µM | > 10 µM | > 10 µM | > 10 µM
2 | COC(=O)Nc1ccc(-c2nc(N3CCOCC3)c3cnn(C4CCN(Cc5cccnc5)CC4)c3n2)cc1 [WYE-687] | 8.2 | 10.1 | 11.5 | 6.9 | 14.2 | 104% | 97% | 100% | 74.2% | 19% | 97.5% | 111% | 92.8% | 54% | 17.6% | 93.6% | 93.9% | 88% | 47.8% | 21.6% | 94.2% | 95.9% | 89.3% | 71.3% | 37.6% | 100% | 95.5% | 79.2% | 37.2% | 20.4% | 1.36 µM | 0.818 µM | 0.496 µM | 0.925 µM | 0.271 µM
3 | CCCC(=O)Nc1ccc(OCC(O)CNC(C)C)c(C(C)=O)c1 (stereo not given) [acebutolol] | 0 | 0 | 0 | 0 | 0 | 90.4% | 96.3% | 95.2% | 98% | 101% | 106% | 88.6% | 104% | 88.7% | 104% | 102% | 94.8% | 93% | 104% | 96.1% | 88.2% | 96.9% | 93.8% | 81.9% | 95.6% | 95.3% | 104% | 104% | 117% | 88.5% | > 10 µM | > 10 µM | > 10 µM | > 10 µM | > 10 µM
4 | CC(=O)c1ccc2c(c1)N(CCCN(C)C)c1ccccc1S2 [acepromazine] | 0 | 0 | 0 | 0 | 0.3 | 101% | 95% | 100% | 93.9% | 95.7% | 98.3% | 96.4% | 101% | 91.9% | 94.7% | 104% | 93.1% | 99.6% | 86.4% | 102% | 101% | 101% | 99.4% | 99.4% | 89.2% | 111% | 102% | 92.9% | 96.1% | 83.5% | > 10 µM | > 10 µM | > 10 µM | > 10 µM | > 10 µM
